Active and inactive are the calls of the source. The calls are words filed in the database; no cut-off is given here.
Experiments:
Human respirovirus 3 = test: Antiviral activity against Parainfluenza virus type 3 infected in human KB cells; assay type: functional, organism-based
Human alphaherpesvirus 1 = test: Antiviral activity against Herpes simplex virus type 1 infected in human KB cells; assay type: functional, organism-based
KB = test: Antiviral activity against Rhinovirus type 13 infected in human KB cells; assay type: functional, cell-based; conditions: Human rhinovirus A13

Row | SMILES | Activity (Human respirovirus 3) | Activity (Human alphaherpesvirus 1) | Activity (KB)
1 | NC(=O)c1ncn([C@@H]2O[C@H](CO)[C@@H](O)[C@H]2O)n1 | Active | Active | Active
2 | NC(=O)c1ncn([C@@H]2S[C@H](CO)[C@@H](O)[C@H]2O)n1 |  | Active | 
